Tests used:
[1] = system: aged-impaired (AI) rats; assay: eight-arm Radial Arm Maze (RAM) task with one-hour delay, spatial memory retention; format: in vivo, rat
[2] = system: memory-impaired aged rats; conditions: cited from earlier work
[3] = aged rats, chronic subcutaneous 100 mg/kg/day; cited from earlier work

SMILES	effective in reducing the number of errors, on its own ([1]; valproate subcutaneous 25 mg/kg)	effective in reducing the number of errors, on its own ([1]; valproate subcutaneous 50 mg/kg)	effective in reducing the number of errors, on its own ([1]; valproate subcutaneous 100 mg/kg)	treatment of cognitive impairment ([2]; chronic subcutaneous 50 mg/kg/day)	performance in a memory test ([2]; chronic subcutaneous 100 mg/kg/day)	blood total valproate level [3] [µg/ml plasma]
CCCC(CCC)C(=O)O [valproate, 2-propylpentanoate]	not	not	effective	not effective		
CCCC(CCC)C(=O)[O-].[Na+] [sodium valproate]					significantly improved	10
